Experiments:
[1] = Plasma concentration of quinagolide and active metabolites in sheep with intravaginal rings; assay type: in vivo; conditions: first and second sheep trials
Excerpt: During the first and second sheep trials, the plasma concentration of quinagolide (Q) was monitored over the 28 day period. The plasma concentrations of active metabolites (M1 and M2: see FIG. 13) were also monitored in the sheep. The results are illustrated in FIG. 10 (see Tables 14 and 17 for quinagolide dose).

[2] = PK variables for quinagolide administered by an intravaginal ring in clinical study 000155; assay type: in vivo, healthy women; conditions: for Tmax: median
Method: Following intravaginal administration the plasma concentration of quinagolide increased to reach a maximum at approximately 37-39 hours with a subsequent slow decline until the ring was removed (see FIG. 15). The mean time for reaching a maximum serum concentration was similar between all three dose groups but with substantial inter-individual variation. Cmax increased with increasing dose while the mean terminal half-life estimations were appropriately the same in all three doses (Table 21: above).

[3] = In vivo release profile of vaginal rings in clinical study 000155; parameters: species or system healthy women
[4] = vaginal ring dose load 400 μg, target release 5 μg/day
[5] = vaginal ring dose load 800 μg, target release 10 μg/day
[6] = vaginal ring dose load 1200 μg, target release 15 μg/day

Compound: CCCN1CC(NS(=O)(=O)NCC)CC2Cc3c(O)cccc3CC21 (centres unmarked) [Batch M1]
- molar plasma concentration, fold lower than the quinagolide [1]: approximately 10 fold

Compound: CCCN1CC(NS(N)(=O)=O)CC2Cc3c(O)cccc3CC21 (centres unmarked) [Batch M2]
- molar plasma concentration, fold lower than the quinagolide [1]: approximately 10 fold

Compound: CCCN1C[C@@H](NS(=O)(=O)N(CC)CC)C[C@@H]2Cc3c(O)cccc3C[C@H]21 [quinagolide, N,N-diethyl-N′-[(3S,4aS, 10aR)-6-hydroxy-1-propyl-1,2,3,4,4a,5,10,10a-octahydrobenzo[g]quinolin-3-yl]sulfamide]
- quinagolide concentration in the plasma at any point during the study [1]: ≤ 50 pg/mL
- AUC Day 0-28 (Hpg/mL) ([2]; 400 μg intravaginal ring, Mean (SD)): 738 (236) Hpg/mL
- AUC Day 0-28 (Hpg/mL) ([2]; 800 μg intravaginal ring, Mean (SD)): 1497 (379) Hpg/mL
- AUC Day 0-28 (Hpg/mL) ([2]; 1200 μg intravaginal ring, Mean (SD)): 3297 (1040) Hpg/mL
- Cmax ([2]; female, human, plasma, 400 ug, 400 μg intravaginal ring, Mean (SD)): 3.4 pg/mL
- Tmax ([2]; female, human, plasma, 400 ug, 400 μg intravaginal ring): 48 h
- Cmax ([2]; female, human, plasma, 800 ug, 800 μg intravaginal ring, Mean (SD)): 5.3 pg/mL
- Tmax ([2]; female, human, plasma, 800 ug, 800 μg intravaginal ring): 48 h
- Cmax ([2]; female, human, plasma, 1200 ug, 1200 μg intravaginal ring, Mean (SD)): 10.9 pg/mL
- Tmax ([2]; female, human, plasma, 1200 ug, 1200 μg intravaginal ring): 36 h
- half-life ([2]; female, human, plasma, other: intravaginal ring, 400 ug, printed in the 400 μg line only, Mean (SD), read-out: T½ (converted)): 840 min
- time at which plasma concentration of quinagolide reached a maximum ([2]; intravaginal administration, all three dose groups): 37 to 39 h
- Average release 35 Days [3, 4]: 9.4 µg/day
- Average release 7 days [3, 4]: 10.4 µg/day
- Average release 28 days [3, 4]: 8.8 µg/day
- Average release 35 Days [3, 5]: 16.8 µg/day
- Average release 7 days [3, 5]: 24.1 µg/day
- Average release 28 days [3, 5]: 12.6 µg/day
- Average release 35 Days [3, 6]: 21.3 µg/day
- Average release 7 days [3, 6]: 43.4 µg/day
- Average release 28 days [3, 6]: 29.7 µg/day
